# Laboratory results published in PubChem BioAssay (NCI).
#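 48-hour exposure; five concentrations; linearly interpolated endpoints. TGI denotes the concentration required for complete inhibition of growth.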
# Key:
# Experiment in all cases: NCI anticancer screen, dose series, 48 h
# [1] = test system: NCI-H522 lung
# [2] = test system: COLO 205 colon
# [3] = test system: NCI/ADR-RES ovarian
# [4] = test system: 786-0 renal
# [5] = test system: OVCAR-4 ovarian
# [6] = test system: MDA-N
# [7] = test system: OVCAR-5 ovarian
# [8] = test system: NCI-H460 lung
# [9] = test system: HOP-92 NSCLC
# [10] = test system: SF-295 CNS
# [11] = test system: TK-10 renal
# [12] = test system: IGROV1 ovarian
# [13] = test system: HS 578T breast
# [14] = test system: HCT-116 colon
# [15] = test system: SF-268 CNS
# [16] = test system: BT-549 breast
# [17] = test system: RXF 393 renal
# [18] = test system: NCI-H23 lung
# [19] = test system: MDA-MB-231 breast
# [20] = test system: K-562 leukemia
# [21] = test system: SK-MEL-2 melanoma
# [22] = test system: MALME-3M melanoma
# [23] = test system: SF-539 CNS
# [24] = test system: LOX IMVI melanoma
# [25] = test system: SR leukemia
# [26] = test system: ACHN renal
# [27] = test system: UACC-62 melanoma
# [28] = test system: CAKI-1 renal
# [29] = test system: MOLT-4 leukemia
# [30] = test system: MCF7 breast
# [31] = test system: UO-31 renal
# [32] = test system: HCT-15 colon
# [33] = test system: SNB-19 CNS
# [34] = test system: PC-3 prostate
# [35] = test system: HT29 colon
# [36] = test system: RPMI-8226 leukemia
# [37] = test system: OVCAR-3 ovarian
# [38] = test system: CCRF-CEM leukemia
# [39] = test system: KM12 colon
# [40] = test system: OVCAR-8 ovarian
# [41] = test system: SK-MEL-28 melanoma
# [42] = test system: MDA-MB-435
# [43] = test system: U251 CNS
# [44] = test system: HOP-62 NSCLC
# [45] = test system: UACC-257 melanoma
# [46] = test system: SK-MEL-5 melanoma
# [47] = test system: SK-OV-3 ovarian
# [48] = test system: DU-145 prostate
# [49] = test system: A498 renal
# [50] = test system: T-47D breast
# [51] = test system: HL-60(TB) leukemia
# [52] = test system: M14 melanoma
# [53] = test system: SN12C renal
# [54] = test system: SW-620 colon
# [55] = test system: EKVX NSCLC
# [56] = test system: A549 NSCLC
# [57] = test system: SNB-75 CNS
# [58] = test system: NCI-H226 lung
# [59] = test system: HCC-2998 colon
structure (smiles),measurement,setting,value
Cc1cc(C)n(CN(CCCCO)Cn2nc(C)cc2C)n1,TGI,[1],48.1 µM
same,TGI,[2],31.7 µM
same,TGI,[3],39 µM
same,TGI,[4],36.7 µM
same,TGI,[5],61.9 µM
same,TGI,[6],35.1 µM
same,TGI,[7],51.1 µM
same,TGI,[8],> 100 µM
same,TGI,[9],81 µM
same,TGI,[10],> 100 µM
same,TGI,[11],> 100 µM
same,TGI,[12],73.4 µM
same,TGI,[13],> 100 µM
same,TGI,[14],36.4 µM
same,TGI,[15],65.2 µM
same,TGI,[16],71.2 µM
same,TGI,[17],39 µM
same,TGI,[18],50.6 µM
same,TGI,[19],78.6 µM
same,TGI,[20],52.7 µM
same,TGI,[21],41.7 µM
same,TGI,[22],57.3 µM
same,TGI,[23],36.2 µM
same,TGI,[24],51.2 µM
same,TGI,[25],28.7 µM
same,TGI,[26],39.4 µM
same,TGI,[27],36.9 µM
same,TGI,[28],99.5 µM
same,TGI,[29],50.7 µM
same,TGI,[30],68.3 µM
same,TGI,[31],69.1 µM
same,TGI,[32],34.7 µM
same,TGI,[33],> 100 µM
same,TGI,[34],57.7 µM
same,TGI,[35],37.1 µM
same,TGI,[36],20.3 µM
same,TGI,[37],58 µM
same,TGI,[38],1.74 µM
same,TGI,[39],60.6 µM
same,TGI,[40],41.7 µM
same,TGI,[41],39.3 µM
same,TGI,[42],38.4 µM
same,TGI,[43],49.9 µM
same,TGI,[44],47.6 µM
same,TGI,[45],80 µM
same,TGI,[46],> 100 µM
same,TGI,[47],> 100 µM
same,TGI,[48],53.6 µM
same,TGI,[49],> 100 µM
same,TGI,[50],66.5 µM
same,TGI,[51],79 µM
same,TGI,[52],33.9 µM
same,TGI,[53],67 µM
same,TGI,[54],63 µM
same,TGI,[55],76.3 µM
same,TGI,[56],> 100 µM
CCc1cc2c(cc1C(=O)CCC(=O)O)CC1(C2)Cc2cc(CC)c(C(=O)CCC(=O)O)cc2C1,TGI,[1],> 100 µM
same,TGI,[2],> 100 µM
same,TGI,[3],> 100 µM
same,TGI,[4],> 100 µM
same,TGI,[5],> 100 µM
same,TGI,[57],> 100 µM
same,TGI,[58],> 100 µM
same,TGI,[6],> 100 µM
same,TGI,[7],> 100 µM
same,TGI,[8],> 100 µM
same,TGI,[9],> 100 µM
same,TGI,[10],> 100 µM
same,TGI,[11],> 100 µM
same,TGI,[12],> 100 µM
same,TGI,[13],> 100 µM
same,TGI,[14],> 100 µM
same,TGI,[15],> 100 µM
same,TGI,[17],> 100 µM
same,TGI,[18],> 100 µM
same,TGI,[19],> 100 µM
same,TGI,[20],> 100 µM
same,TGI,[21],> 100 µM
same,TGI,[22],> 100 µM
same,TGI,[23],> 100 µM
same,TGI,[24],> 100 µM
same,TGI,[59],> 100 µM
same,TGI,[26],> 100 µM
same,TGI,[28],> 100 µM
same,TGI,[29],> 100 µM
same,TGI,[30],> 100 µM
same,TGI,[31],> 100 µM
same,TGI,[32],> 100 µM
same,TGI,[33],> 100 µM
same,TGI,[34],> 100 µM
same,TGI,[35],> 100 µM
same,TGI,[36],> 100 µM
same,TGI,[37],> 100 µM
same,TGI,[38],> 100 µM
same,TGI,[39],> 100 µM
same,TGI,[40],> 100 µM
same,TGI,[41],> 100 µM
same,TGI,[42],> 100 µM
same,TGI,[43],> 100 µM
same,TGI,[44],> 100 µM
same,TGI,[45],> 100 µM
same,TGI,[46],> 100 µM
same,TGI,[47],> 100 µM
same,TGI,[48],> 100 µM
same,TGI,[49],> 100 µM
same,TGI,[50],> 100 µM
same,TGI,[51],> 100 µM
same,TGI,[52],> 100 µM
same,TGI,[53],> 100 µM
same,TGI,[54],> 100 µM
same,TGI,[55],> 100 µM
same,TGI,[56],> 100 µM
